The subject of the assay is L1210 leukemia ip in BDF1 mice, survival T/C. Put plainly: NCI In Vivo Anticancer Drug Screen. Data for tumor model L1210 Leukemia (intraperitoneal) in B6D2F1 (BDF1) mice. The following applies: endpoint: mean survival time, higher = longer survival. In outline: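 Each compound was tested against a transplantable tumor grown in mice. The endpoint was survival, with treated animals benchmarked against vehicle controls as a simple ratio.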

Setting [1] is: dose: 400.0 mg/kg/injection, schedule: Q04DX003 (ip), vehicle: saline with Tween-80.
Setting [2] is: dose: 400.0 mg/kg/injection, schedule: Q04DX003 (ip), vehicle: saline.
The mark [3] stands for this setting: dose: 100.0 mg/kg/injection, schedule: Q01DX009 (ip), vehicle: saline with Tween-80.
Where [4] appears, read: dose: 200.0 mg/kg/injection, schedule: Q01DX009 (ip), vehicle: saline with Tween-80.
[5] abbreviates: dose: 400.0 mg/kg/injection, schedule: Q01DX009 (ip), vehicle: saline with Tween-80.
The mark [6] stands for this setting: dose: 100.0 mg/kg/injection, schedule: Q04DX002 (ip), vehicle: Klucel (hydroxypropylcellulose) (HPC).
The mark [7] stands for this setting: dose: 200.0 mg/kg/injection, schedule: Q04DX002 (ip), vehicle: Klucel (hydroxypropylcellulose) (HPC).
Setting [8] is: dose: 400.0 mg/kg/injection, schedule: Q04DX002 (ip), vehicle: Klucel (hydroxypropylcellulose) (HPC).
[9] abbreviates: dose: 100.0 mg/kg/injection, schedule: Q04DX003 (ip), vehicle: saline.
The mark [10] stands for this setting: dose: 200.0 mg/kg/injection, schedule: Q04DX003 (ip), vehicle: saline.
Where [11] appears, read: dose: 100.0 mg/kg/injection, schedule: Q01DX001 (ip), vehicle: saline.
Where [12] appears, read: dose: 200.0 mg/kg/injection, schedule: Q01DX001 (ip), vehicle: saline.
The mark [13] stands for this setting: dose: 400.0 mg/kg/injection, schedule: Q01DX001 (ip), vehicle: saline.
Setting [14] is: dose: 6.25 mg/kg/injection, schedule: Q01DX009 (ip), vehicle: saline with Tween-80.
Where [15] appears, read: dose: 12.5 mg/kg/injection, schedule: Q01DX009 (ip), vehicle: saline with Tween-80.
[16] abbreviates: dose: 25.0 mg/kg/injection, schedule: Q01DX009 (ip), vehicle: saline with Tween-80.
Setting [17] is: dose: 50.0 mg/kg/injection, schedule: Q01DX009 (ip), vehicle: saline with Tween-80.
[18] abbreviates: dose: 100.0 mg/kg/injection, schedule: Q04DX003 (ip), vehicle: saline with Tween-80.
Where [19] appears, read: dose: 200.0 mg/kg/injection, schedule: Q04DX003 (ip), vehicle: saline with Tween-80.

Several values for one entry are separate records, joined by “and”; a condition that tells them apart may be missing. Equal entries are not always repeated. Toxic doses and inconclusive results are not listed.

On to `CN(C)N=Nc1ccc(S(=O)(=O)Nc2ncccn2)cc1`, for which the T/C reads like this: (dose: 100.0 mg/kg/injection, schedule: Q04DX002 (ip), vehicle: saline with Tween-80) 114 % of control; (dose: 264.0 mg/kg/injection, schedule: Q04DX003 (ip), vehicle: saline with Tween-80) 100 % of control; (dose: 400.0 mg/kg/injection, schedule: Q04DX002 (ip), vehicle: saline with Tween-80) 177 % of control; under setting [1], 105 % of control; under setting [2], 176 % of control; (dose: 600.0 mg/kg/injection, schedule: Q04DX003 (ip), vehicle: saline) 124 % of control.
Take `CCOC(=O)c1ccc(NC(=O)Nc2ccc(SC)cc2)cc1N(CC)CC`: the T/C is 104 % of control under setting [3], 94 % of control under setting [4] and 92 % of control under setting [5].
Consider `O=C1N(c2ccccc2)C(c2ccccc2)SC1(Cc1ccc(Br)cc1)c1ccccc1` (stereo not drawn), for which the T/C by setting is: (dose: 100.0 mg/kg/injection, schedule: Q01DX001 (ip), vehicle: saline with Tween-80) 100 % of control; (dose: 200.0 mg/kg/injection, schedule: Q01DX001 (ip), vehicle: saline with Tween-80) 98 % of control; (dose: 400.0 mg/kg/injection, schedule: Q01DX001 (ip), vehicle: saline with Tween-80) 94 % of control.
In the case of `NC(CSS(=O)(=O)O)=NCC1CC2CCC1C2` (stereo not drawn), the T/C reads like this: (dose: 6.25 mg/kg/injection, schedule: Q04DX002 (ip), vehicle: saline with Tween-80) 100 % of control; (dose: 12.5 mg/kg/injection, schedule: Q04DX002 (ip), vehicle: saline with Tween-80) 110 % of control; (dose: 25.0 mg/kg/injection, schedule: Q04DX002 (ip), vehicle: saline with Tween-80) 106 % of control.
Turning to `CC1=CC(C)(C)NC(=S)N1CCO`, the T/C runs as follows: (dose: 74.0 mg/kg/injection, schedule: Q01DX Z (ip), vehicle: methylcellulose (MC)) 91 % of control; under setting [6], 104 % of control; under setting [7], 107 % of control.
On to `CC(C)(C)OC1C2C=CC1C1C2C2(Cl)C(Cl)=C(Cl)C1(Cl)C21OCCO1` (stereo not drawn), for which the T/C reads like this: under setting [6], 97 % of control; under setting [8], 110 % of control.
With `O=P(c1ccccc1)(c1ccccc1)N1CCCCC1`, the T/C reads like this: (dose: 100.0 mg/kg/injection, schedule: Q04DX003 (ip), vehicle: Klucel (hydroxypropylcellulose) (HPC)) 101 % of control; (dose: 200.0 mg/kg/injection, schedule: Q04DX003 (ip), vehicle: Klucel (hydroxypropylcellulose) (HPC)) 96 % of control; (dose: 400.0 mg/kg/injection, schedule: Q04DX003 (ip), vehicle: Klucel (hydroxypropylcellulose) (HPC)) 93 % of control.
Regarding `CC(=O)OC1CCCCC1NC(=O)NCCCl` (stereo not drawn), the T/C (dose: 12.5 mg/kg/injection, schedule: Q04DX002 (ip), vehicle: Klucel (hydroxypropylcellulose) (HPC)) is 87 % of control; the T/C (dose: 25.0 mg/kg/injection, schedule: Q04DX002 (ip), vehicle: Klucel (hydroxypropylcellulose) (HPC)) was 93 % of control; the T/C (dose: 50.0 mg/kg/injection, schedule: Q04DX002 (ip), vehicle: Klucel (hydroxypropylcellulose) (HPC)) was 101 % of control; the T/C under setting [6] is 91 % of control; the T/C under setting [7] is 103 % of control; the T/C under setting [8] is 106 % of control and 95 % of control.
On to `O=c1[nH]cnc2c1nc([Se])n2C1OC(CO)C(O)C1O` (stereo not drawn), for which the T/C by setting is: (dose: 100.0 mg/kg/injection, schedule: Q01DX005 (ip), vehicle: saline) 102 % of control; (dose: 200.0 mg/kg/injection, schedule: Q01DX005 (ip), vehicle: saline) 107 % of control.
Turning to `CCSc1cc(C(=O)O)cc([N+](=O)[O-])c1`, the T/C by setting is: under setting [9], 104 % of control; under setting [10], 93 % of control; under setting [2], 94 % of control.
In the case of `CN(C)CCC(CN=C(N)N)c1cccc2ccccc12` (stereo not drawn), the T/C was 100 % of control (dose: 12.5 mg/kg/injection, schedule: Q01DX009 (ip), vehicle: saline); 100 % of control (dose: 25.0 mg/kg/injection, schedule: Q01DX009 (ip), vehicle: saline); 93 % of control (dose: 25.0 mg/kg/injection, schedule: Q04DX002 (ip), vehicle: saline); 101 % of control (dose: 50.0 mg/kg/injection, schedule: Q01DX009 (ip), vehicle: saline); 97 % of control (dose: 50.0 mg/kg/injection, schedule: Q04DX002 (ip), vehicle: saline).
As to `CC(C)(C)c1cc(OCC2CO2)ccc1OCC1CO1` (stereo not drawn), the T/C by setting is: under setting [11], 107 % of control; under setting [12], 107 % of control; under setting [13], 95 % of control.
Regarding `NC(=S)N/N=C/c1cc(-c2cccc(N)c2)ccn1`, the T/C is, setting by setting: under setting [14], 112 % of control; under setting [15], 114 % of control; under setting [16], 114 % of control; under setting [17], 111 % of control; under setting [3], 114 % of control.
`Cc1ccc(CC2CC(=O)c3ccccc3C2=O)cc1` (stereo not drawn): the T/C by setting is: under setting [18], 91 % of control; under setting [19], 91 % of control; under setting [1], 89 % of control.
In the case of `c1ccc(CC(Cc2ccccc2)NC2=NCCO2)cc1`, the T/C reads like this: under setting [14], 106 % of control; (dose: 6.25 mg/kg/injection, schedule: Q04DX003 (ip), vehicle: saline with Tween-80) 107 % of control; under setting [15], 94 % of control; (dose: 12.5 mg/kg/injection, schedule: Q04DX003 (ip), vehicle: saline with Tween-80) 106 % of control; under setting [16], 89 % of control; (dose: 25.0 mg/kg/injection, schedule: Q04DX003 (ip), vehicle: saline with Tween-80) 102 % of control.
With `Nc1ccc(Nc2nc3ccccc3s2)c(O)c1`, the T/C (dose: 75.0 mg/kg/injection, schedule: Q01DX001 (ip), vehicle: saline) is 104 % of control; the T/C (dose: 150.0 mg/kg/injection, schedule: Q01DX001 (ip), vehicle: saline) was 101 % of control; the T/C (dose: 300.0 mg/kg/injection, schedule: Q01DX001 (ip), vehicle: saline) is 104 % of control.
Regarding `S=C(Nc1ccc(Cl)c(Cl)c1)SCc1ccco1`, the T/C is, setting by setting: (dose: 30.0 mg/kg/injection, schedule: Q04DX003 (ip), vehicle: saline with Tween-80) 101 % of control; (dose: 60.0 mg/kg/injection, schedule: Q04DX003 (ip), vehicle: saline with Tween-80) 101 % of control; (dose: 120.0 mg/kg/injection, schedule: Q04DX003 (ip), vehicle: saline with Tween-80) 101 % of control.
On to `COc1ccc2[nH]c3cc(Cl)ccc3c(=O)c2c1`, for which the T/C under setting [3] is 91 % of control, the T/C under setting [4] was 88 % of control and the T/C under setting [5] was 86 % of control.
As for `CC(O)c1cccc(NC(=O)NC(C)(C)C)c1` (stereo not drawn), the T/C is 102 % of control (dose: 100.0 mg/kg/injection, schedule: Q01DX009 (ip), vehicle: Klucel (hydroxypropylcellulose) (HPC)); 107 % of control (dose: 200.0 mg/kg/injection, schedule: Q01DX009 (ip), vehicle: Klucel (hydroxypropylcellulose) (HPC)); 113 % of control (dose: 400.0 mg/kg/injection, schedule: Q01DX009 (ip), vehicle: Klucel (hydroxypropylcellulose) (HPC)).
For `O=C(Nc1ccccc1F)c1ccc(C(=O)Nc2ccccc2F)cc1`, the T/C reads like this: under setting [15], 92 % of control; under setting [16], 86 % of control; under setting [17], 90 % of control; under setting [18], 90 % of control; under setting [19], 87 % of control.
For `Cc1cc2oc(=O)c(Cl)c(NCCO)c2c(C)c1Cl`, the T/C is 104 % of control under setting [3], 96 % of control under setting [4] and 95 % of control under setting [5].
For the compound `CC1([N+](=O)[O-])COP(=O)(Nc2ccccc2)OC1` (stereo not drawn), the T/C runs as follows: (dose: 50.0 mg/kg/injection, schedule: Q01DX001 (ip), vehicle: saline) 96 % of control; under setting [11], 98 % of control; under setting [12], 93 % of control; under setting [13], 110 % of control.
For the compound `CC(=O)Nc1ccc(P(=O)(O)O)cc1[N+](=O)[O-]`, the T/C is, setting by setting: under setting [9], 91 % of control; under setting [10], 102 % of control; under setting [2], 115 % of control.
